*1 amine or outer side, *2 acyl side, *3 side chain or, on linkers, in order; H or OH if unused. Where a SMILES comes first, the peptide text is derived from it. Bridges are numbered along the chain shown (N, C = ends). Roman numbers before positions name the chains, in order. [ ]: non-standard residue; d: D form. Actinocin(9to1) = Cc1c2oc3c(C)ccc(C(=O)[*:1])c3nc-2c(C(=O)[*:2])c(N)c1=O; NMeV = CN[C@H](C(=O)O)C(C)C; Sar = CNCC(=O)O
Columns and labels:
[1] = test system: Chinese hamster ovary (CHO) cells, wildtype AuxB1; assay: cells; assay type: cell-based; settings: Cricetulus griseus, AuxB1, read-out: reduction in cell number below the value of completely untreated cultures
[2] = test system: resistant sublines of murine leukemia cells; settings: cited from earlier work

SMILES	inhibition at 0.01 µM [1]	enhancement of the activity of antitumor agents against resistant sublines of murine leukemia cells [2]
Cc1c2oc3c(C)ccc(C(=O)N[C@@H]4C(=O)N[C@H](C(C)C)C(=O)N5CCC[C@H]5C(=O)N(C)CC(=O)N(C)[C@@H](C(C)C)C(=O)O[C@@H]4C)c3nc-2c(C(=O)N[C@@H]2C(=O)N[C@H](C(C)C)C(=O)N3CCC[C@H]3C(=O)N(C)CC(=O)N(C)[C@@H](C(C)C)C(=O)O[C@@H]2C)c(N)c1=O [Actinomycin D, reference compound] (I: T[dV]P[Sar][NMeV] / II: T[dV]P[Sar][NMeV]; ester I:1-I:C, II:1-II:C; linker I:N-II:N via Actinocin(9to1))	10 to 20%	–
COc1ccc([C@@H]2Sc3ccccc3N(CCN(C)C)C(=O)[C@@H]2OC(C)=O)cc1 [diltiazem]	–	enhance the activity of antitumor agents
COC(=O)C1=C(C)NC(C)=C(C(=O)OCCN(C)Cc2ccccc2)C1c1cccc([N+](=O)[O-])c1 (centres unmarked) [nicardipine]	–	enhance the activity of antitumor agents
C=C[C@H]1C[N@@]2CC[C@H]1C[C@@H]2[C@@H](O)c1ccnc2ccc(OC)cc12 [quinidine]	–	enhance the activity of antitumor agents
CN1CCN(CCCN2c3ccccc3Sc3ccc(C(F)(F)F)cc32)CC1 [trifluoperazine]	–	enhance the activity of antitumor agents
